Data from ChEMBL document CHEMBL4507275, “Data for DCP probe BI-2545” (2021).

Columns and labels:
[1] = molecular target: Tyrosine-protein kinase Lck (Homo sapiens) (UniProt P06239); assay: LCK_CE Cerep selectivity data (BI); details: Compound concentration 10.0 uM
[2] = molecular target: cGMP-inhibited 3',5'-cyclic phosphodiesterase 3A (Homo sapiens) (UniProt Q14432); assay: PDE3A Cerep selectivity data (BI); details: Compound concentration 10.0 uM
[3] = molecular target: Glucocorticoid receptor (Homo sapiens) (UniProt P04150); assay: GCORTICOID/H Cerep selectivity data (BI); details: Compound concentration 10.0 uM
[4] = molecular target: 3',5'-cyclic-AMP phosphodiesterase 4D (Homo sapiens) (UniProt Q08499); assay: PDE4D2 Cerep selectivity data (BI); details: Compound concentration 10.0 uM
[5] = molecular target: Endothelin-1 receptor (Homo sapiens) (UniProt P25101); assay: ETA/H Cerep selectivity data (BI); details: Compound concentration 10.0 uM
[6] = molecular target: Glutamate receptor ionotropic, NMDA 2A (Rattus norvegicus) (UniProt Q00959); assay: NMDA/R Cerep selectivity data (BI); details: Compound concentration 10.0 uM
[7] = molecular target: T1, Alpha-2A adrenergic receptor (Homo sapiens) (UniProt P08913); assay: ALPHA2A/HU Cerep selectivity data (BI); details: Compound concentration 10.0 uM
T1 sequence (whole entry): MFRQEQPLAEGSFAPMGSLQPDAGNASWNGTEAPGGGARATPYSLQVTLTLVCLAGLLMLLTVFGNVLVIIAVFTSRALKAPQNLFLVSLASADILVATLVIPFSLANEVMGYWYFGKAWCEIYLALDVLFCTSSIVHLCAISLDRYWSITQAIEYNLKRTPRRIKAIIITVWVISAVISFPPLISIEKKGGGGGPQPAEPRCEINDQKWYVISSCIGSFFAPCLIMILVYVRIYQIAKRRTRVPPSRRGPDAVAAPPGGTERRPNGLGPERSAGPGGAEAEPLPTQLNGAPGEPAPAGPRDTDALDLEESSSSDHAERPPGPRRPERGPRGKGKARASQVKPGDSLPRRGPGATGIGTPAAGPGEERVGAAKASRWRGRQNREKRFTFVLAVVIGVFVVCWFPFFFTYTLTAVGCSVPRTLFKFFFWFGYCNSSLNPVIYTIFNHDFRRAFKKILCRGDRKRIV

[8] = molecular target: 5-hydroxytryptamine receptor 1B (Rattus norvegicus) (UniProt P28564); assay: 5HT1B/R Cerep selectivity data (BI); details: Compound concentration 10.0 uM
5-hydroxytryptamine receptor 1B (Rattus norvegicus), sequence (P28564 whole entry): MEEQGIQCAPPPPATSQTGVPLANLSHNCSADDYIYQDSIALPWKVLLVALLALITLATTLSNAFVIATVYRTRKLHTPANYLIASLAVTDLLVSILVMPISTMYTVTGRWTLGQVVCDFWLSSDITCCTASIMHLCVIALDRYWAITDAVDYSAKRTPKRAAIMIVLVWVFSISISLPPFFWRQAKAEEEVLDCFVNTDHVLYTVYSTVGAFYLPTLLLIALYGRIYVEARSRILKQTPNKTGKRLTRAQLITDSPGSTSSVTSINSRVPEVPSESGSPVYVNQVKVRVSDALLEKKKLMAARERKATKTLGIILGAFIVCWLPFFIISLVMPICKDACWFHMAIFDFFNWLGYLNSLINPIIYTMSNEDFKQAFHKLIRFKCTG

[9] = molecular target: MAO-A (amine oxidase [flavin-containing] A) (Rattus norvegicus, UniProt P21396); assay: MAO-A_ANTAG Cerep selectivity data (BI); parameters: mode of action antagonist; scale not given: the % may be the effect or the level left; details: compound concentration 10 uM, read-out: % Ctrl
MAO-A (amine oxidase [flavin-containing] A), sequence (P21396 whole entry): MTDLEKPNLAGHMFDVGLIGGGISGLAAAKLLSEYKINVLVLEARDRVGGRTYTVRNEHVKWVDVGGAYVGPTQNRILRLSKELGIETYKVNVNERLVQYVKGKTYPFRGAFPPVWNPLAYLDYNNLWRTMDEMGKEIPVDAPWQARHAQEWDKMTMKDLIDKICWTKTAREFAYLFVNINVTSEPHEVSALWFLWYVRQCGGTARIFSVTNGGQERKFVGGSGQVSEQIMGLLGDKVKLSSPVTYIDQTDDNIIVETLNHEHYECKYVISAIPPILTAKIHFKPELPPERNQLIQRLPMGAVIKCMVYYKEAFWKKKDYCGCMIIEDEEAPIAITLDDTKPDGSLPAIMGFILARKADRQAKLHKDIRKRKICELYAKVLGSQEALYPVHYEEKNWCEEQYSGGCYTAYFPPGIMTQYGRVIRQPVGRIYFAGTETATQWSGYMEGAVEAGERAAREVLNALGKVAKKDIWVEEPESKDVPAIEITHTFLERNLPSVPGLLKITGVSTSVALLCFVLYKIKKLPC

[10] = molecular target: Neuronal acetylcholine receptor; alpha4/beta2 (Homo sapiens) (UniProt P17787+P43681); assay: N_NEURO_A4B2 Cerep selectivity data (BI); assay type: protein-complex assay; details: filed as agonist, Compound concentration 10.0 uM
[11] = molecular target: T2, Alpha-1A adrenergic receptor (Homo sapiens) (UniProt P35348); assay: ALPHA1AH_ANTAG Cerep selectivity data (BI); details: filed as antagonist, Compound concentration 10.0 uM
T2 sequence (whole entry): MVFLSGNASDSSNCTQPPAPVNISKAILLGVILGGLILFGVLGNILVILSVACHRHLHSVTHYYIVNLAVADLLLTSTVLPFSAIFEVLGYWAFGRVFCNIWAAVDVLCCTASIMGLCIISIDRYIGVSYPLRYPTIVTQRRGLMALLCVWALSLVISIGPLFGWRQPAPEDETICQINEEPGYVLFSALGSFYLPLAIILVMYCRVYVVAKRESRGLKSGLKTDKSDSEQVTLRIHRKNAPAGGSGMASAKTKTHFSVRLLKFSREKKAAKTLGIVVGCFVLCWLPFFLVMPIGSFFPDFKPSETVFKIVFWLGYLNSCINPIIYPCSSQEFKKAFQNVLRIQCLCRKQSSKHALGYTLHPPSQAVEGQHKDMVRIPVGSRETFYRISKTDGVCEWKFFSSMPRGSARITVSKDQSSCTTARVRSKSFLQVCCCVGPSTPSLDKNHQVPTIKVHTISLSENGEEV

[12] = molecular target: Beta-2 adrenergic receptor (Homo sapiens) (UniProt P07550); assay: BETA2/HUM Cerep selectivity data (BI); details: filed as antagonist, Compound concentration 10.0 uM
[13] = molecular target: Sodium-dependent serotonin transporter (Homo sapiens) (UniProt P31645); assay: SLC6A4/H Cerep selectivity data (BI); details: filed as antagonist, Compound concentration 10.0 uM
[14] = molecular target: Potassium voltage-gated channel subfamily V member 1 (Rattus norvegicus) (UniProt P97557); assay: K+/VOLT/RA Cerep selectivity data (BI); details: Compound concentration 10.0 uM
[15] = molecular target: Adenosine receptor A2a (Homo sapiens) (UniProt P29274); assay: A2A/H Cerep selectivity data (BI); details: filed as antagonist, Compound concentration 10.0 uM
Adenosine receptor A2a (Homo sapiens), sequence (P29274 whole entry): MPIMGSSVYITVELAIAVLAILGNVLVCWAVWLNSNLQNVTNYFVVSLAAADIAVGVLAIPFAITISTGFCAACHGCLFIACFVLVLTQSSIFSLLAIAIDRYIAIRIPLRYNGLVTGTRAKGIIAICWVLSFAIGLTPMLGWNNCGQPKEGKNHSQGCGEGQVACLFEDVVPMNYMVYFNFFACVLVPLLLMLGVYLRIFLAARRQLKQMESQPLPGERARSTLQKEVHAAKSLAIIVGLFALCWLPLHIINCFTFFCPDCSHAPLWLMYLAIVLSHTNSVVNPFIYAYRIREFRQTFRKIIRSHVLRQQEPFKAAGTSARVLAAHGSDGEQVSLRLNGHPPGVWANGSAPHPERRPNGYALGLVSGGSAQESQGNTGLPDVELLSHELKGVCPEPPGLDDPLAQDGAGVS

[16] = molecular target: D(2) dopamine receptor (Homo sapiens) (UniProt P14416); assay: D2SH_AGON Cerep selectivity data (BI); details: filed as agonist, Compound concentration 10.0 uM
[17] = molecular target: Histamine H1 receptor (Homo sapiens) (UniProt P35367); assay: H1/PYRIL/HS Cerep selectivity data (BI); details: Compound concentration 10.0 uM
Histamine H1 receptor (Homo sapiens), sequence (P35367 whole entry): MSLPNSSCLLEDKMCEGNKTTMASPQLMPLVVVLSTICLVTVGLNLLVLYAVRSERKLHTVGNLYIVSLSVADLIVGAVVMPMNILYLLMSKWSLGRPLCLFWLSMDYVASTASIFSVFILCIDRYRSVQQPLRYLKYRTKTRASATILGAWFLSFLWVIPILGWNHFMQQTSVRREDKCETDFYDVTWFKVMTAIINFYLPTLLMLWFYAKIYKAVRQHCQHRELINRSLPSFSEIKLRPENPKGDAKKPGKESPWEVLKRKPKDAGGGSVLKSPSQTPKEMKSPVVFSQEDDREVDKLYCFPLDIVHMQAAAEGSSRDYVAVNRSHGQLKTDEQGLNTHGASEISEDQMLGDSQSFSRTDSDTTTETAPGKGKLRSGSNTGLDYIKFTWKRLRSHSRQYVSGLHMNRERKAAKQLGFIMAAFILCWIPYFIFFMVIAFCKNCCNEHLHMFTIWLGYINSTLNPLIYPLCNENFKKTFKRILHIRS

[18] = molecular target: Sigma non-opioid intracellular receptor 1 (Homo sapiens, UniProt Q99720); assay: GPCRScan assay: inhibition of Sigma 1; parameters: radioligand conc. used [nm] 4.0 – 5.0, parental cells HEKT
Sigma non-opioid intracellular receptor 1, sequence (Q99720 whole entry): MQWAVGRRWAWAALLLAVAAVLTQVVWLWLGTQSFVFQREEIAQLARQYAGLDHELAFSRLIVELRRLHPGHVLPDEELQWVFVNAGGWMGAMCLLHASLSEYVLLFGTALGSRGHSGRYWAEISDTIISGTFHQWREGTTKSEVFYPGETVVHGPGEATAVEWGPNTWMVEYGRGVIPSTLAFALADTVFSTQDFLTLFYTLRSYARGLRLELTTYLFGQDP

[19] = molecular target: 5-hydroxytryptamine receptor 2B (Homo sapiens) (UniProt P41595); assay: 5HT2B/H AG Cerep selectivity data (BI); details: filed as agonist, Compound concentration 10.0 uM
5-hydroxytryptamine receptor 2B (Homo sapiens), sequence (P41595 whole entry): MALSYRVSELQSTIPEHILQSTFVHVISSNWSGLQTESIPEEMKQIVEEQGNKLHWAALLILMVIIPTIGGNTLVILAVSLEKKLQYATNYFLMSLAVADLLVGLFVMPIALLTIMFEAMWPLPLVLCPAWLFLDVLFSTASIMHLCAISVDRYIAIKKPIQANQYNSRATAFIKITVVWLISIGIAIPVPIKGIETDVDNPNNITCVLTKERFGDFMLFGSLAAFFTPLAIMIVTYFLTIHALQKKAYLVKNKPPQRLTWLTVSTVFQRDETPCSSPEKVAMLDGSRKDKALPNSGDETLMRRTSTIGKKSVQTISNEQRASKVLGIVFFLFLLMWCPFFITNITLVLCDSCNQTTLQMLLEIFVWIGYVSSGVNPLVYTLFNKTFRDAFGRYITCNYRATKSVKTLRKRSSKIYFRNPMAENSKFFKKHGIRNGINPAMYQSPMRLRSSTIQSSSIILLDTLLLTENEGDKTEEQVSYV

[20] = molecular target: Vasopressin V1a receptor (Homo sapiens) (UniProt P37288); assay: V1A/HUM Cerep selectivity data (BI); details: Compound concentration 10.0 uM
Vasopressin V1a receptor (Homo sapiens), sequence (P37288 whole entry, looked up): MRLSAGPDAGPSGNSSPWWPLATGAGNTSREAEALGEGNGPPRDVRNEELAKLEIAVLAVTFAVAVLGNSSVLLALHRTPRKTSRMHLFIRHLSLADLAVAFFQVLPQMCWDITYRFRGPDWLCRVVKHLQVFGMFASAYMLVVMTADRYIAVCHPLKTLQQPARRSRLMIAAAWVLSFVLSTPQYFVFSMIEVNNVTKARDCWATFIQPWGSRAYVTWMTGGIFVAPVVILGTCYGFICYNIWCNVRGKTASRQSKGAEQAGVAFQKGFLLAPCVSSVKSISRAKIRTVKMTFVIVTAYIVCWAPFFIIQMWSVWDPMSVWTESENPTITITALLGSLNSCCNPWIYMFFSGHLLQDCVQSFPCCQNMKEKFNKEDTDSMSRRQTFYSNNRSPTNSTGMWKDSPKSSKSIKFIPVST

[21] = molecular target: Beta-1 adrenergic receptor (Homo sapiens) (UniProt P08588); assay: BETA1/HUM Cerep selectivity data (BI); details: Compound concentration 10.0 uM
Beta-1 adrenergic receptor (Homo sapiens), sequence (P08588 whole entry, looked up): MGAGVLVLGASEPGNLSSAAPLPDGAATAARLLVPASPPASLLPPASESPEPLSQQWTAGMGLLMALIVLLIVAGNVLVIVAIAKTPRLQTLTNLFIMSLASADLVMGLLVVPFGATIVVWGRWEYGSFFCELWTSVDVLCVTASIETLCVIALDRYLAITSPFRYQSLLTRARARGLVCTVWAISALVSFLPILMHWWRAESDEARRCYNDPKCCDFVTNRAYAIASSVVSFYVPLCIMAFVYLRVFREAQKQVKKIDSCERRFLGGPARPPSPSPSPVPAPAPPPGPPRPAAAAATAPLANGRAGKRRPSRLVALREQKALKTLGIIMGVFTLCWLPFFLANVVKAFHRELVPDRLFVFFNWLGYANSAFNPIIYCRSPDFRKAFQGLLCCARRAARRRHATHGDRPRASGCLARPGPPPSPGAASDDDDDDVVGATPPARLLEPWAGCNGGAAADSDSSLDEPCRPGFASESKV

[22] = molecular target: Muscarinic acetylcholine receptor M1 (Homo sapiens) (UniProt P11229); assay: M1/H Cerep selectivity data (BI); details: Compound concentration 10.0 uM
Muscarinic acetylcholine receptor M1 (Homo sapiens), sequence (P11229 whole entry): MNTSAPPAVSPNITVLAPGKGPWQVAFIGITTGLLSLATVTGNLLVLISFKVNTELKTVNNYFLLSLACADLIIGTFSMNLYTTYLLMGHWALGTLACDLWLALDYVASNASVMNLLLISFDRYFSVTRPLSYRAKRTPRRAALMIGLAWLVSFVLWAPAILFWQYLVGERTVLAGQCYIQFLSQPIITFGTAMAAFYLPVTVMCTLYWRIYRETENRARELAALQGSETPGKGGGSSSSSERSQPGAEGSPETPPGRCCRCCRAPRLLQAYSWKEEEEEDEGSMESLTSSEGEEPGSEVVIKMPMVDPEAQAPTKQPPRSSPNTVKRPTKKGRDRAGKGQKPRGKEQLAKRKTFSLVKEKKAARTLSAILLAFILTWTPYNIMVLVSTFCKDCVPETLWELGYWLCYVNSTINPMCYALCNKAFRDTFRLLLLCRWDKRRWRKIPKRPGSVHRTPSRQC

[23] = molecular target: Muscarinic acetylcholine receptor M1 (Homo sapiens) (UniProt P11229); details: Compound concentration 10.0 uM
[24] = molecular target: 5-hydroxytryptamine receptor 2A (Homo sapiens, UniProt P28223); assay: GPCRScan assay: inhibition of 5-HT2A; parameters: radioligand conc. used [nm] 1.2 – 2.4, parental cells HEKT
5-hydroxytryptamine receptor 2A, sequence (P28223 whole entry): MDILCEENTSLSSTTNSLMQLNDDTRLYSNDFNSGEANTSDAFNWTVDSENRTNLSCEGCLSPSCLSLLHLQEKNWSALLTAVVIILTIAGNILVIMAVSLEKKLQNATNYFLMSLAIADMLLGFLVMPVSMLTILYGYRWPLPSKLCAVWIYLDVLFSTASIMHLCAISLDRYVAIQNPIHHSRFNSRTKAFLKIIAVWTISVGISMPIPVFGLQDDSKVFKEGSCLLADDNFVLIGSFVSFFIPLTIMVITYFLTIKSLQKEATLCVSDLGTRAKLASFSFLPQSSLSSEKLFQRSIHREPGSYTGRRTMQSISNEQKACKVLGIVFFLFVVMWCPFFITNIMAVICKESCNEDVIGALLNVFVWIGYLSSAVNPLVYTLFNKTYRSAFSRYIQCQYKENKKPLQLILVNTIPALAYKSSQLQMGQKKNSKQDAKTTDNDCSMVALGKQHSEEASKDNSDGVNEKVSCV

Tyrosine-protein kinase Lck (Homo sapiens), sequence (P06239 2-509 limits assumed): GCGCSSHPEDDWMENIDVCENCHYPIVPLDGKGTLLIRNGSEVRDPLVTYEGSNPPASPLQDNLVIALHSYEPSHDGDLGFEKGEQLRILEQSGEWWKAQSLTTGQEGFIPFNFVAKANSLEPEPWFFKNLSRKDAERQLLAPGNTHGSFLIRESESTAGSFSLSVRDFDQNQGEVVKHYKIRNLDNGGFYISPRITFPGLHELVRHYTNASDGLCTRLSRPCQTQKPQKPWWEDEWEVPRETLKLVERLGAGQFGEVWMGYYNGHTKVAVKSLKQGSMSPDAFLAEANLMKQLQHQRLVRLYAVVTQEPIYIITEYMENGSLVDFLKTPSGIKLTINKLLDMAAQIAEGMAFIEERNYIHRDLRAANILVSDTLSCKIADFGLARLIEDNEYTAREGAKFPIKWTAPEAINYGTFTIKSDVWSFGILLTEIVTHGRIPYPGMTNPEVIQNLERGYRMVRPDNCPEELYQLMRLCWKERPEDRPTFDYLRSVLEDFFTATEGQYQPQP

O=C(NC[C@@H]1[C@H]2CN(C(=O)OCc3cc(C(F)(F)F)cc(C(F)(F)F)c3)C[C@@H]12)c1ccc2[nH]nnc2c1 [BI 2545]
8.68 µM: Ki [24]
inactive: residual activity [1] 96% | residual activity [2] 76% | residual activity [3] 99% | residual activity [4] 98% | residual activity [5] 92% | residual activity [6] 100% | residual activity [7] 86% | residual activity [8] 92% | residual activity [10] 111% | residual activity [11] 87% | residual activity [12] 96% | residual activity [13] 66% | residual activity [14] 103% | residual activity [15] 107% | residual activity [16] 97% | residual activity [17] 101% | residual activity [19] 54% | residual activity [20] 80% | residual activity [21] 98% | residual activity [22] 97% | inhibition [23] -2.87%
3.55 µM: Ki [18]
70% (not active): activity at 10 µM [9]
